Laboratory results published in US20060014790A1, “Methods of treatment of amyloidosis using spirocyclohexane aspartyl-protease inhibitors” (priority 2004, published 2006).
Several values for one entry are separate records, joined by “and”; a condition that tells them apart may be missing. Identical values can stand only once.

Molecular target: catD / beta-secretase (BACE)
Experiment: CatD/BACE selectivity (ratio of IC50 values)
Assay type: biochemical
Conditions: each value is an average of four experimental runs; multiple values = more than one experiment
Description: Selectivity was calculated as a ratio of inhibition (IC50) values in which the inhibition of beta-secretase was compared to the inhibition of other aspartyl proteases.
In the following examples, each value is an average of four experimental runs and multiple values for one compound indicate that more than one experiment was conducted.

Compound	IC50 catD/IC50 BACE
CC(=O)NC(Cc1cc(F)cc(F)c1)C(O)CNC1(c2cccc(C(C)(C)C)c2)CCC(C(F)(F)F)CC1 (single isomer, unassigned) [196A-32 Diastereomer A, N-(4-(1-(3-tert-butylphenyl)-4-(trifluoromethyl)cyclohexylamino)-1-(3,5-difluorophenyl)-3-hydroxybutan-2-yl)acetamide]	1.7
CC(=O)NC(Cc1cc(F)cc(F)c1)C(O)CNC1(c2cccc(C(C)(C)C)c2)CCC([S+](C)[O-])CC1 (stereo not drawn) [196A-34 Mix, N-(4-(1-(3-tert-butylphenyl)-4-(methylsulfinyl)cyclohexylamino)-1-(3,5-difluorophenyl)-3-hydroxybutan-2yl)acetamide]	2.1
CC(=O)NC(Cc1cc(F)cc(F)c1)C(O)CNC1(c2cccc(C(C)(C)C)c2)CCC(N)CC1 (single isomer, unassigned) [196A-30 Diastereomer B, N-(4-(1-(3-tert-butylphenyl)-4-aminocyclohexylamino)-1-(3,5-difluorophenyl)-3-hydroxybutan-2-yl)acetamide]	>8.4
CC(=O)NC(Cc1cc(F)cc(F)c1)C(O)CNC1(c2cccc(C(C)(C)C)c2)CCC(O)(CO)CC1 (single isomer, unassigned) [196A-36 Diastereomer B, N-[3-[1-(3-tert-Butyl-phenyl)-4-hydroxy-4-hydroxymethyl-cyclohexylamino]-1-(3,5-difluoro-benzyl)-2-hydroxy-propyl]-acetamide]	>5.3
CC(=O)NC(Cc1cc(F)cc(F)c1)C(O)CNC1(c2cccc(-c3ccsc3)c2)CCC(=O)CC1 (stereo not drawn) [Example 196A-19, N-(1-(3,5-difluorophenyl)-3-hydroxy-4-(4-oxo-1-(3-(thiophen-3-yl)phenyl)cyclohexylamino)butan-2-yl)acetamide]	4.4
CC(=O)NC(Cc1cc(F)cc(F)c1)C(O)CNC1(c2cccc(C(C)(C)C)c2)CCCN(C)C1 (stereo not drawn) [Example 196A-40, N-(4-(3-(3-tert-butylphenyl)-1-methylpiperidin-3-ylamino)-1-(3,5-difluorophenyl)-3-hydroxybutan-2-yl)acetamide]	>2,0
CC(=O)NC(Cc1ccc(O)cc1)C(O)CNC1(c2cccc(C(C)C)c2)CCCCC1 (stereo not drawn) [Example 196A-2, N-{2-Hydroxy-1-(4-hydroxy-benzyl)-3-[1-(3-isopropyl-phenyl)-cyclohexylamino]-propyl}-acetamide]	3.6 and 4.1 and 3.9
CNC(=O)NC1CCC(NCC(O)C(Cc2cc(F)cc(F)c2)NC(C)=O)(c2cccc(C(C)(C)C)c2)CC1 (single isomer, unassigned) [196A-45 Diastereomer A, 1-(4-(3-acetamido-4-(3,5-difluorophenyl)-2-hydroxybutylamino)-4-(3-tert-butylphenyl)cyolohexyl)-3-methylurea]	>3.5
CNC1CCC(NCC(O)C(Cc2cc(F)cc(F)c2)NC(C)=O)(c2cccc(C(C)(C)C)c2)CC1 (single isomer, unassigned) [196A-26 Diastereomer A, N-(4-(1-(3-tert-butylphenyl)-4-(methylamino)cyclohexylamino)-1-(3,5-difluorophenyl)-3-hydroxybutan-2-yl)acetamide]	>4.7
CC(=O)NC(Cc1cc(F)cc(F)c1)C(O)CNC1(c2cccc(C(C)C)c2)CCN(C(C)=O)CC1 (stereo not drawn) [Example 196A-10, N-[3-[1-Acetyl-4-(3-isopropyl-phenyl)-piperidin-4-ylamino]-1-(3,5-difluoro-benzyl)-2-hydroxy-propyl]-acetamide]	3.2
CC(=O)NC(Cc1cc(F)cc(F)c1)C(O)CNC1(c2cccc(C(C)(C)C)c2)CCC(O)(CO)CC1 (single isomer, unassigned) [196A-35 Diastereomer A, N-[3-[1-(3-tert-Butyl-phenyl)-4-hydroxy-4-hydroxymethyl-cyclohexylamino]-1-(3,5-difluoro-benzyl)-2-hydroxy-propyl]-acetamide]	>7.4
CC(=O)NC(Cc1cc(F)cc(F)c1)C(O)CNC1(c2cccc(C(C)(C)C)c2)CCC(N(O)C(C)=O)CC1 (single isomer, unassigned) [196A-39 Diastereomer A]	9.6
COC(=O)NC1CCC(NCC(O)C(Cc2cc(F)cc(F)c2)NC(C)=O)(c2cccc(C(C)(C)C)c2)CC1 (single isomer, unassigned) [196A-38 Diastereomer B, methyl 4-(3-acetamido-4-(3,5-difluorophenyl)-2-hydroxybutylamino)-4-(3-tert-butylphenyl)cyclohexylcarbamate]	2.6 and 2.0 and 2.3
CC(=O)NC(Cc1cc(F)cc(F)c1)C(O)CNC1(c2cccc(C(C)C)c2)CCN(C=O)CC1 (stereo not drawn) [Example 196A-13, N-{1-(3,5-Difluoro-benzyl)-3-[1-formyl-4-(3-isopropyl-phenyl)-piperidin-4-ylamino]-2-hydroxy-propyl}-acetamide]	33.5
CCS(=O)(=O)N1CCC(NCC(O)C(Cc2cc(F)cc(F)c2)NC(C)=O)(c2cccc(C(C)(C)C)c2)CC1 (stereo not drawn) [Example 196A-15, N-[3-[4-(3-tert-Butyl-phenyl)-1-ethanesulfonyl-piperidin-4-ylamino]-1-(3,5-difluoro-benzyl)-2-hydroxy-propyl]-acetamide]	13.1
CNC1CCC(NCC(O)C(Cc2cc(F)cc(F)c2)NC(C)=O)(c2cccc(C(C)(C)C)c2)CC1 (single isomer, unassigned) [196A-28 Diastereomer B, N-(4-(1-(3-tert-butylphenyl)-4-(methylamino)cyclohexylamino)-1-(3,5-difluorophenyl)-3-hydroxybutan-2-yl)acetamide]	>3.9
CC(=O)NC(Cc1cccc(F)c1)C(O)CNC1(c2cccc(C(C)C)c2)CCCCC1 (stereo not drawn) [Example 196A-4, N-{1-(3-Fluoro-benzyl)-2-hydroxy-3-[1-(3-isopropyl-phenyl)-cyclohexylamino]-propyl}-acetamide]	1.1
CC(=O)NC(Cc1cc(F)cc(F)c1)C(O)CNC1(c2cccc(-c3ccsc3)c2)CCC(=O)CC1 (stereo not drawn) [Example 196A-49, N-{1-(3,5-Difluoro-benzyl)-2-hydroxy-3-[4-oxo-1-(3-thiophen-3-yl-phenyl)-cyclohexylamino]-propyl}-acetamide]	4.4
CC(=O)NC(Cc1cc(F)cc(F)c1)C(O)CNC1(c2cccc(C(C)(C)C)c2)CCC(NS(C)(=O)=O)CC1 (single isomer, unassigned) [196A-41 Diastereomer A, N-(4-(1-(3-tert-butylphenyl)-4-(methylsulfonamido)cyclohexylamino)-1-(3,5-difluorophenyl)-3-hydroxybutan-2-yl)acetamide]	18.1
CC(=O)NC(Cc1cc(F)cc(F)c1)C(O)CNC1(c2cccc(C(C)C)c2)CCN(S(C)(=O)=O)CC1 (stereo not drawn) [Example 196A-11, N-{1-(3,5-Difluoro-benzyl)-2-hydroxy-3-[4-(3-isopropyl-phenyl)-1-methanesulfonyl-piperidin-4-ylamino]-propyl}-acetamide]	12.7
CCc1cccc(C2(NCC(O)C(Cc3cc(F)cc(F)c3)NC(C)=O)CCOCC2)c1 (stereo not drawn) [Example 196A-1, N-{1-(3,5-Difluoro-benzyl)-3-[4-(3-ethyl-phenyl)-tetrahydro-pyran-4-ylamino]-2-hydroxy-propyl}-acetamide]	3.0 and 2.3 and 2.7
